Results reported in US7696190B2, “16Alpha-methyl or ethyl substituted estrogens” (N.V. Organon, priority 2000, dated 2010).

Tested on: human estrogen receptor α (hERα) or β receptor (hERβ)
Experiment: in vitro transactivation bioassay (luciferase reporter) in recombinant CHO cells, estrogenic (agonist) activity compared with estradiol
Type: cell-based
Conditions: percentage agonist activity for ER α divided by percentage agonist activity for ER β; CHO cells co-transfected with hERα or hERβ, rat oxytocin promoter and luciferase reporter
Protocol: Compounds are tested for their estrogen receptor activity in a binding assay and in a transactivation assay. The estrogenic and antiestrogenic activity of compounds is determined in an in vitro bioassay with recombinant Chinese hamster ovary (CHO) cells stably co-transfected with the human estrogen receptor α (hERα) or β receptor (hERβ), the rat oxytocin promoter (RO) and the luciferase reporter gene (LUC). The estrogenic activity (potency ratio) of a test compound to stimulate the transactivation of the enzyme luciferase mediated via the estrogen receptors hERα or hERβ is compared with the standard estrogen estradiol. The antiestrogenic activity (potency ratio) of a test compound to inhibit the transactivation of the enzyme luciferase mediated via the estrogen receptors hERα or hERβ by the estrogen estradiol is compared with the standard ICI 164.384 (=(7α,17β)-N-butyl-3,17-dihydroxy-N-methylestra-1,3,5(10)-triene-7-undecanamide). A quantitative parameter for agonist selectivity is obtained by dividing the percentage agonist activity for ER α by the percentage agonist activity for ER β. Compound 11a has agonist selectivity for estrogen receptor α over estrogen receptor β of more than 86 times. Compound 26 has an agonist selectivity for ER α over ER β of 59 times. Compound 27 has agonist selectivity of 88.3 times.

C#CC1(O)C(C)CC2C3CCC4=C(CCC(O)C4)C3C(CC=C)CC21C (stereo not drawn) [Compound 27, (3α,11β,16α,17β)-16-methyl-11-(2-propenyl)-19-norpregn-5(10)-en-20-yne-3,17-diol]
agonist selectivity for estrogen receptor α over estrogen receptor β: 88.3 times
